This note sets out measurements from patent publication US20250120980A1, “DIBENZ[…] AND USE IN […] PROTEIN AGONISTS THEREOF” (priority 2023, published 2025).

Assay type in all cases: cell-based
Experiment [1] has as its system VSV-GFP (vesicular stomatitis virus).
The next experiment has as its system IAV (influenza virus).
Experiment [2] relates to PRV-GFP (porcine pseudorabies virus).
Experiment [3] has as its system STING pathway (IFNb gene expression) in L929 mouse epithelial-like fibroblasts.

Where “and” joins values, the source holds several entries; their conditions need not be identical. Equal values may be shown once.

As for `Cc1ccc2c(c1C)Nc1ccccc1CC2=O` [Compound 11, 6,7-dimethyl-5,11-dihydro-10H-dibenzo[b,f]aza-10-one], in experiment [1], the “Infection Rate, VSV-GFP” value is 40% and 31.1% and 33.7%; the “proportion of VSV-GF infected cells (in words)” value is listed as “significantly reduced”. For the same compound, the “M1 (M gene of influenza virus) Ct value” in the experiment on IAV (influenza virus) is 18.71 and 18.62 and 18.68. Besides, in experiment [2], the “Infection Rate, PRV-GFP” value was 13.1% and 14.2% and 13.5%; the “proportion of PRV-GFP infected cells (in words)” value is on record as “significantly reduced”.

Consider `Cc1ccc2c(c1C)Nc1cc(F)ccc1CC2=O` [Compound 13, 3-fluoro-6,7-dimethyl-5,11-dihydro-10H-dibenzo[b,f]aza-10-one], for which, in experiment [1], the “Infection Rate, VSV-GFP” value was 94.3% and 92.7% and 92.1%; the “proportion of VSV-GF infected cells (in words)” value is on record as “significantly reduced”. The “IFNb mRNA expression 2-^ΔΔCt value” in experiment [3] was 2.97 and 2.37 and 2.48 and 3.34. Further, the “M1 (M gene of influenza virus) Ct value” in the experiment on IAV (influenza virus) is 19.45 and 20.25 and 19.66. For the same compound, in experiment [2], the “Infection Rate, PRV-GFP” value is 7.06% and 8.55% and 7.42%; the “proportion of PRV-GFP infected cells (in words)” value was “significantly reduced”.

For the compound `O=C1Cc2ccccc2Nc2ccccc21` [Compound 14, 5,11-dihydro-10H-dibenzo[b,f]aza-10-one], in experiment [1], the “Infection Rate, VSV-GFP” value was 76.1% and 66.5% and 65.8%; the “proportion of VSV-GF infected cells (in words)” value is on record as “significantly reduced”. In the experiment with IAV (influenza virus), the “M1 (M gene of influenza virus) Ct value” is 18.99 and 19.52 and 19.69. Also, in experiment [2], the “Infection Rate, PRV-GFP” value is 17.1% and 19.5% and 19.8%; the “proportion of PRV-GFP infected cells (in words)” value is “significantly reduced”.

With `O=C1Cc2ccccc2Nc2c(Cl)cccc21` [Compound 15, 6-chloro-5,11-dihydro-10H-dibenzo[b,f]aza-10-one], in experiment [3], the “IFNb mRNA expression 2-^ΔΔCt value” came to 1.61.

In the case of `COc1ccc2c(c1)C(=O)Cc1ccccc1N2` [Compound 17, 8-methoxy-5,11-dihydro-10H-dibenzo[b,f]aza-10-one], in experiment [3], the “IFNb mRNA expression 2-^ΔΔCt value” came out at 1.54.

On to `COc1ccc2c(c1)Nc1c(ccc(C)c1C)C(=O)C2` [Compound 18, 3-methoxy-6,7-dimethyl-5,11-dihydro-10H-dibenzo[b,f]aza-10-one], for which, in experiment [1], the “Infection Rate, VSV-GFP” value is 13.9% and 12.5% and 12.9%; the “proportion of VSV-GF infected cells (in words)” value is “significantly reduced”. Further, the “IFNb mRNA expression 2-^ΔΔCt value” in experiment [3] was 8.76 and 6.92 and 6.07 and 5.62. In addition, the “M1 (M gene of influenza virus) Ct value” in the experiment on IAV (influenza virus) is 19.52 and 19.47 and 19.51. In experiment [2], the “Infection Rate, PRV-GFP” value is 18.3% and 18.1%; the “proportion of PRV-GFP infected cells (in words)” value is “significantly reduced”.

On to `COc1ccc2c(c1)CC(=O)c1ccc(C)c(C)c1N2` [Compound 19, 2-methoxy-6,7-dimethyl-5,11-dihydro-10H-dibenzo[b,f]aza-10-one], for which, in experiment [1], the “Infection Rate, VSV-GFP” value is 99% and 91.1% and 90.5%; the “proportion of VSV-GF infected cells (in words)” value is “significantly reduced”. The “M1 (M gene of influenza virus) Ct value” with IAV (influenza virus) was 21.37 and 21.39 and 21.49. In experiment [2], the “Infection Rate, PRV-GFP” value was 51% and 55.7% and 50.2%; the “proportion of PRV-GFP infected cells (in words)” value is “significantly reduced”.
